The record followed here is patent publication US20200157144A1, “ANTIMICROBIAL PEPTIDOMIMETICS” (priority 2017, published 2020).

Molecules are shown by their SMILES. Values after ≈ are worked out from the molar mass of the structure shown. Square brackets hold non-standard residues; d marks the D form. Peptide text beside a SMILES is read from it. dBip(4'-Cl) = N[C@H](Cc1ccc(-c2ccc(Cl)cc2)cc1)C(=O)O

The subject of assay [1] is Mupirocin-resistant MRSA (ATCC-BAA-1556). Put plainly: Time-kill assay at 4xMIC (FIG. 1). It is filed as cell-based, Staphylococcus aureus. Particulars: 4×MIC.
In assay [2] the test system is Enterococcus faecium ATCC BAA-2320. Kind of assay: microbe, parasite or virus in culture. It counts as cell-based. Particulars: ATCC BAA-2320. The protocol:
(§1) The antibacterial potency of Compound 34 was measured using the in vitro broth microdilution assay under assay conditions described by the Clinical and Laboratory Standards Institute. […] The test substance was dissolved in 100% DMSO (unless stated below), suspended completely by sonication or vortexing, diluted by 2-fold serial titrations in the same vehicle, for a total of 10 test concentrations (final concentrations: 100, 50, 25, 12.5, 6.25, 3.125, 1.56, 0.78, 0.39, 0.2 μM). A 4 μL aliquot of each dilution was added to 196 μL of broth medium seeded with the organism suspension in wells of a 96 well plate (bacterial count: 2-8×10^5 colony forming units/mL final). The final volume was 200 μL in each well and the final DMSO concentration was 2 percent. The incubation time is either 1 or 2 days at 36° C. All strains tested underwent aerobic respiration, except for ATCC BAA-1805 and ATCC 29399. Following incubation, the test plates were visually examined and wells were scored for growth or complete growth inhibition to define the minimum inhibitory concentration. Each test substance was evaluated in duplicate and the results below are the duplicate test values. Vehicle-control and an active reference agent were used as blank and positive controls, respectively.

The subject of assay [3] is Propionibacterium acnes ATCC 29399. Kind of assay: microbe, parasite or virus in culture. It counts as cell-based. The conditions noted are these: ATCC 29399. Here is the method: as §1
For assay [4], the system named is Enterococcus faecalis ATCC 51299. Put plainly: microbe, parasite or virus in culture. It counts as cell-based. The conditions noted are these: ATCC 51299. The protocol: as §1
Assay [5] concerns S. aureus (ATCC BAA-1556). Put plainly: microbe, parasite or virus in culture. The protocol:
S. aureus (BAA-1556) was from ATCC. Mupirocin (Cat # M2955) was purchased from TCI chemicals (India) Pvt. […] Ltd, India, Cation adjusted Mueller Hinton broth (CAMHB) and Mueller Hinton Agar (MHA) (Cat # M1657) were from HiMedia Laboratories Pvt. Ltd, India.
The MIC assay was done based on CLSI guidelines in a microtitre plate format (1, 2). Preparation and dilution of Test Item (TI) stock solutions: A 1280 μg/ml stock of Compound 34 was prepared by dissolving 1.28 mg in 1.0 ml of sterile water to obtain the Master Stock (MS) solution. The MS solution was diluted 2-fold to obtain a series of Working Stock (WS) solutions (Table 7). The final concentration of solvent in the assay was 2.5% and the assay volume was […].
Preparing the inoculum: One day before initiation of experiment, an isolated colony of S. aureus (ATCC BAA-1556) was inoculated into sterile CAMHB and incubated at 37° C. to exponential phase. After incubation, the turbidity was adjusted to that of a 0.5 McFarland Standard (approximately equivalent to 1.0×10^8 CFU/ml) and diluted to ˜1.0×10^6 CFU/ml.
MIC Assay: The MIC assay was performed in a 96 well microtitre plate in a total assay volume of 100 μl (Table 7). Each well containing different concentrations of test compound (concentration range between 0.015625 and 16.0 μg/ml) was inoculated with 50 μl of bacterial suspension (prepared from the inoculum grown overnight and adjusted approximately to 5.0×10^5 CFU/ml) along with culture control (CC, culture in broth), broth control (BC, broth only), and vehicle control (VC, 2.5% solvent in broth plus culture). The plate was incubated at 37° C. for 24 hr and turbidity was measured spectrophotometrically (Absorbance microplate reader, BioTek® India, ELx800™) at 600 nm and visually. The experiment was done in duplicates. The inoculum was also plated for enumeration of bacteria. The MIC was defined as the lowest concentration of test compound that prevented bacterial growth (lack of turbidity by OD at 600 nm and visual inspection relative to no growth control).

For assay [6], the system named is Mupirocin-resistant MRSA (ATCC-BAA-1556). Put plainly: Bactericidal/static determination assay at 4xMIC (FIG. 2). It is filed as cell-based, Staphylococcus aureus. Particulars: 4×MIC.
For assay [7], the system named is Mupirocin-susceptible MRSA ATCC-BAA-1681 (USA100). Put plainly: microbe, parasite or virus in culture. It is filed as cell-based, Staphylococcus aureus. The conditions noted are these: ATCC-BAA-1681; read-out: MIC. The gist of the method: (§2)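 OD600 read-out after overnight shaking at 35° C. Cation-adjusted MH2 broth, inoculum ~1×10^6 CFU/mL, compounds 100–0.195 μM (2-fold, duplicates). MIC = lowest μM concentration with no growth, per CLSI microdilution.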

Assay [8] concerns Mupirocin-susceptible MRSA ATCC-BAA-1756 (USA300). Kind of assay: microbe, parasite or virus in culture. It is filed as cell-based, Staphylococcus aureus. Particulars: ATCC-BAA-1756; read-out: MIC. The gist of the method: as §2
Assay [9] has as its system Mupirocin-resistant MRSA ATCC-BAA-1750 (USA200). Put plainly: microbe, parasite or virus in culture. It counts as cell-based, Staphylococcus aureus. The conditions noted are these: ATCC-BAA-1750; read-out: MIC. The gist of the method: as §2
The test system of assay [10] is Mupirocin-susceptible MRSA ATCC-BAA-1754 (ST45). Kind of assay: microbe, parasite or virus in culture. It counts as cell-based, Staphylococcus aureus. Particulars: ATCC-BAA-1754; read-out: MIC. The gist of the method:
as §2

Assay [11] has as its system Mupirocin-susceptible MRSA ATCC-BAA-1707 (USA400). Put plainly: microbe, parasite or virus in culture. It counts as cell-based, Staphylococcus aureus. The conditions noted are these: ATCC-BAA-1707; read-out: MIC. The gist of the method:
as §2

Turning to `N=C(N)NCCC[C@@H](NC(=O)[C@@H](Cc1ccc(-c2ccc(Cl)cc2)cc1)NC(=O)[C@@H](CCCNC(=N)N)NC(=O)[C@H](N)Cc1ccc(-c2ccc(Cl)cc2)cc1)C(N)=O` [Compound 34] (H-[dBip(4'-Cl)][dR][dBip(4'-Cl)][dR]-NH2), the “time-kill: rate of killing compared to Linezolid, Retapamulin and Vancomycin” value in [1] was “more rapidly as compared to Linezolid, Retapamulin and Vancomycin”. The MIC in assay [2] came to 1.56 µM (≈ 1.32 µg/mL); in [3] it was 1.56 µM (≈ 1.32 µg/mL); in assay [4], 3.13 µM (≈ 2.64 µg/mL); in [7], 3.125 µM (≈ 2.64 µg/mL); in [8], 1.56 µM (≈ 1.32 µg/mL); in assay [9] it was 1.56 µM (≈ 1.32 µg/mL). In addition, the MIC in [10] and in [11] was 3.125 µM (≈ 2.64 µg/mL) throughout. For the same compound, the “Mean MIC” value came out at 2.37 µM in assay [5] (ATCC BAA-1556, 24 h) and 2.00 µg/mL in assay [5] (S. aureus (ATCC BAA-1556), CAMHB, 37° C., 24 hr). Moreover, the “bactericidal activity compared to Linezolid, Retapamulin and Vancomycin” value in assay [6] was “higher bactericidal activity than Linezolid, Retapamulin and Vancomycin”.
